The text below walks through data of US6677383B1, “Hydroxylation activated prodrugs” (De Montfort University, priority 1998, dated 2004).

Read-outs that look alike come from different tables or passages of the source.

Data set [1] in a line: MTT cytotoxicity assay, cell line expressing CYP1B1. The following applies: Chinese hamster, V79mzhu1B1 cells (V79 cells that express CYP1B1). For orientation: Tetrazolium assays rely on reduction of a dye to a coloured formazan, in cell work by metabolically active cells.
Procedure: (§1) The cytotoxicity assay method used was a modification of the MTT cytotoxicity assay (Carmichael et al., 1987, Cancer Research, 47: 936). […] Compound stocks were made up as 100 mM in DMSO and stored for no more than one month at 4° C. The plates were then incubated at 37° C., 5% CO2, 100% humidity for a further 48 hours followed by washing by immersion 3 times in Dulbecco's PBS (phosphate buffered saline) A. 50 μl of RPMI 1640 w/o phenol red (Roswell Park Memorial Institute Medium 1640, Life Science International) with 2 mg/ml MTT was then added for four hours as above, excess MTT removed by aspiration and 125 μl of DMSO added on a vortex for 30 minutes to solubilize the product. The absorbance at A450 was recorded and the results expressed as a % survival of carrier only treated controls.
A short description of data set [2]: MTT cytotoxicity assay, parental cell line not expressing CYP1B1. Particulars: Chinese hamster, V79mz cells (parental line that does not express CYP1B1).
Procedure: as §1
The target in data set [3] is T1, CYP1B1 (microsomal preparation of human tumour tissue expressing the CYP1B1 enzyme) (Homo sapiens, UniProt Q16678).
T1 sequence (Q16678 1-543): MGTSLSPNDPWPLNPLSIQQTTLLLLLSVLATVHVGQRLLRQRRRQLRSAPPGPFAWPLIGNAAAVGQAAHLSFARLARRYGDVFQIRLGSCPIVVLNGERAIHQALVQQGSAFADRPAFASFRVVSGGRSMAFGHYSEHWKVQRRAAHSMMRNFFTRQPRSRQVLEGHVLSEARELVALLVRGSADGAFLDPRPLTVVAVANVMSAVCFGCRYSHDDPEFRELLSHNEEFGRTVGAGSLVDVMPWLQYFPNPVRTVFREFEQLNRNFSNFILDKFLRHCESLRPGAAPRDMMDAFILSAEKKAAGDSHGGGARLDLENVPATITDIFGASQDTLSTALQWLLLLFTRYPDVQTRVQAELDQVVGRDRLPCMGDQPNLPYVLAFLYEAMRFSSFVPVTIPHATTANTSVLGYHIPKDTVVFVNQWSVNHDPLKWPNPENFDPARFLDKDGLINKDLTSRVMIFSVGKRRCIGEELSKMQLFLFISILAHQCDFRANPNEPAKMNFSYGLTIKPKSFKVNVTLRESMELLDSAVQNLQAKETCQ
The data set can be described thus: Metabolism studies with microsomal preparation of human tumour tissue, HPLC detection of the hydroxylated metabolite. The following applies: tumour microsomes, NADPH, pH 7.6, 1 hour at 37° C., confirmed by synthesis of authentic metabolite.
Procedure: (§2) A microsomal preparation of human tumour tissue expressing the CYP1B1 enzyme was prepared essentially as described by the method of Barrie et al. (1989. J. Steroid Biochem., 6: 1191-1195)
(§3) Experiment were carried out at 37° C., under yellow light.
(§4) An array of 1.5 ml centrifuge tubes were set up in a water bath shaker under aerobic conditions. To each tube was then added 500 μl of pH 7.6 buffer (0.1 M NaK2PO4), followed by NADPH (5 μl of a 25 mM stock solution). The microsomal preparation (80 μl) was then added and the tubes preincubated for 5 minutes at 37° C. The prodrug substrate was then added (10 μl of a 5 mM stock solution) and incubated for 1 hour at 37° C. After 1 hour the tubes were transferred to an ice/water cooling bath (0° C.). The tubes were then centrifuged at 1 5,000 rpm for 30 minutes. A sample of the supernatant (100 μl) was then taken and analysed by HPLC.
(§5) HPLC conditions: Spherisorb C18 (25 cm×4.6 mm id), used without guard column. Flow rate 1 ml/min. Eluent 75% 0.1 M KH2PO4 and 25% acetonitrile.

Data set [4] relates to V79mz cells (parental cell line which does not express CYP1B1).
Procedure: as §1
The subject of data set [5] is V79mzhu1B1 cells (express the enzyme CYP1B1).
Procedure: as §1
For data set [6] the test system is unchanged. As to the kind of experiment: MTT cytotoxicity assay, cell line expressing CYP1B1. The following applies: V79 IC50 versus V791B1 IC50.
Procedure: as §1
Data set [7] deals with T1, CYP1B1 (microsomal preparation of human tumour tissue expressing the CYP1B1 enzyme). The following applies: pH 7.6.
Procedure: as §2, §3, §4, §5

Take `COc1ccc(/C=C(\C#N)c2cccnc2)cc1` [Compound IIa, (Z)-1-Cyano-1-(3-pyridyl)-2-(4-methoxyphenyl)ethene]: the values for the IC50 at 48 h in data set [1] and in data set [2] were 1630 nM and 1810 nM, respectively. In data set [3], the “aromatic hydroxylation to hydroxylated metabolite” value (shortened to “aromatic hydroxylation”) is listed as “converted to the hydroxylated metabolite (Z)-1-Cyano-1-(3-pyridyl)-2-(3-hydroxy-4-methoxyphenyl)ethene”.

`COc1ccc(/C=C/c2ccc(OC)cc2)cc1` [Compound IIIb, (E)-(4,4′)-Dimethoxystilbene]: the IC50 – broadly, the concentration that inhibits the measured activity by half – in data set [4] was determined as 58200 nM; in data set [5], 8300 nM.

Take `COc1cc(C(=O)/C=C/c2ccc(O)cc2)cc(OC)c1OC` [Compound VIII, (E)-1-(4-Hydroxyphenyl)-3-(3,4,5-trimethoxyphenyl)prop-1-en-3-one]: the IC50 at 48 h in data set [1] turned out to be 1710 nM; in data set [2], 1810 nM.

On to `COc1ccc(/C=C/C(=O)c2cc(OC)c(OC)c(OC)c2)cc1` [Compound VII, (E)-1-(4-Methoxyphenyl)-3-(3,4,5-trimethoxyphenyl)prop-1-en-3-one], for which the half-maximal inhibitory concentration (IC50) at 48 h in data set [1] is 5 nM; in data set [2], 1000 nM. In addition, in data set [6], the “fold more cytotoxic to the cell line expressing CYP1B1 than to the parental cell line not expressing this enzyme” value is given as “around 200 fold”. In addition, the “aromatic hydroxylation” value in data set [3] was “converted to the hydroxylated metabolite (E)-1-(3-Hydroxy4-methoxyphenyl)-3-(3,4,5-trimethoxyphenyl)prop-1-en-3-one”.

With `Oc1ccc(/C=C/c2cc(O)cc(O)c2)cc1` [Compound IIIc, (E)-(3,4′,5)-trihydroxystilbene], the “aromatic hydroxylation” value in data set [7] is “converted to the hydroxylated metabolite (E)-(3,3′,4,5′)-tetrahydroxystilbene”.
